Measured values: paper PMC9027131, “Dual PI3K/Akt Inhibitors Bearing Coumarin-Thiazolidine Pharmacophores as Potential Apoptosis Inducers in MCF-7 Cells” (Pharmaceuticals, 2022)

Assays:
[1] = tested on: MCF-7 cells; assay: Cell cycle analysis by flow cytometry (propidium iodide); format: cell-based, human; details: MCF-7, treated at IC50, 48 h
Method: VIIb-treated cells were subjected to cell cycle phase distribution analysis as well as apoptosis rates determination by flow cytometric analysis in MCF-7 cells, as reported.
Control and VIIb-treated (IC50 µM, 48 h) MCF-7 cells were harvested and then subjected to cell cycle analysis by flow cytometry.
Cell cycle analysis and apoptosis rates following VIIb treatment were investigated using a Propidium Iodide Flow Cytometry Kit (ab139418; Abcam, Cambridge, UK) and Annexin V-FITC apoptosis kit (Catalog: K101-25; BioVision Research Products, San Francisco, CA, USA), respectively, following the manufacturer’s instructions as stated by a previous study.

[2] = tested on: MCF-7 cells; assay: MTT cytotoxicity assay in MCF-7 cells; format: cell-based, human; details: Homo sapiens, MCF7, 48 h, means ± sd, n = 3
Method: The in vitro anticancer activity of the designed coumarin-thiosemicarbazones and coumarin-thiazolidine-4-one hybrids against MCF-7 cells was tested using the MTT assay, and 5-fluorouracil (5-FU) was used as the reference drug. The tested compounds were used in different concentrations, and cell survival was determined after incubation for 48 h as reported. The cytotoxic activity is represented in Table 1 as IC50 (µM) values.
(§1) MCF-7 breast cancer cell line (ATCC® HTB-22™) plus non-tumorigenic epithelial cell line (MCF 10, ATCC® CRL-10317™) were supplied from VACSERA (Cairo, Egypt) and cultured in Dulbecco’s Modified Eagle Medium (Invitrogen-Life Technologies, Carlsbad, CA, USA) with 1% antibiotic solution (streptomycin–penicillin) plus 10% fetal bovine serum (Hyclone) in a 5% (v/v) humidified CO2 incubator at 37 °C.
Firstly, cells were kept in a humidified atmosphere (37 °C, 24 h), and then incubated with serial concentrations of the tested compounds. After 48 h, the medium was aspirated, and then cells were incubated with 5% MTT solution (M-5655; Sigma Aldrich, St. Louis, MO USA) (200 µL/well, 2 h), allowing the dye to metabolize into the colored insoluble formazan complex that was then dissolved in the appropriate solubilization solution (M-8910) (200 µL/well), for 30 min with gentle mixing at room temperature. The UV absorbance was measured using a microplate reader (570 nm), and cell viability was determined with respect to untreated control cells. […] The values were means ± sd; n = 3.

[3] = target: T1, PI3K-α (Homo sapiens, UniProt P42336); assay: PI3Kα (p110α/p85) enzyme inhibition assay kit; format: biochemical; details: means ± sd, n = 3; read-out: IC50 (µM) PI3K-α Isoform
T1 construct: purchased BPS Bioscience, Inc 79781
T1 sequence (P42336 whole entry, canonical isoform): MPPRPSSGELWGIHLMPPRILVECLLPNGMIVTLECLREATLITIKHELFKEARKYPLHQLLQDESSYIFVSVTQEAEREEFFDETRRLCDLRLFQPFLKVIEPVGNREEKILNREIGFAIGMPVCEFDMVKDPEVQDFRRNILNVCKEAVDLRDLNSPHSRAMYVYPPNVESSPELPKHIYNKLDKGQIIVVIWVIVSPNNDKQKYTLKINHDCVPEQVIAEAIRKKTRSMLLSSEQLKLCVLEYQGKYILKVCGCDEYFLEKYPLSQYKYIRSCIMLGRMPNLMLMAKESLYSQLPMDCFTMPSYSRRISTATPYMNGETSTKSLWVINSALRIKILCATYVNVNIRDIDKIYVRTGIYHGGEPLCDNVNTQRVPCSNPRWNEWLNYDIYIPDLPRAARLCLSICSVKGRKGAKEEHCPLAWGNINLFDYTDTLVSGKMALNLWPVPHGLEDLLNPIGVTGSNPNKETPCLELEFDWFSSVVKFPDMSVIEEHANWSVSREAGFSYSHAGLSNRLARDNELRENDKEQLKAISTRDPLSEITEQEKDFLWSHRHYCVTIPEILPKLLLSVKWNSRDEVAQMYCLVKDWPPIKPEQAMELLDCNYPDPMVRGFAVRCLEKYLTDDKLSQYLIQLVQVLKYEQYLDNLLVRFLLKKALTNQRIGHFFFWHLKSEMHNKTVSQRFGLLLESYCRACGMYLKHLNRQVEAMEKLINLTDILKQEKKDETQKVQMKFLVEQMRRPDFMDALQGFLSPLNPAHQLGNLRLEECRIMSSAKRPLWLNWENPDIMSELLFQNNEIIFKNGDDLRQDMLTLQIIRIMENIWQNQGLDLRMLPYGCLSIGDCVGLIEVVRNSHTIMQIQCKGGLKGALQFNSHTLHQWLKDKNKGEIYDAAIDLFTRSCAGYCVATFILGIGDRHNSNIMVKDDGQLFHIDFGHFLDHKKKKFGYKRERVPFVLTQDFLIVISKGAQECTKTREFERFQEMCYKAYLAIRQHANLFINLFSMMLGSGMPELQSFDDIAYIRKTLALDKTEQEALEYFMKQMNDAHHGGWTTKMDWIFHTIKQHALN
T1 sequence (P27986 whole entry partner, canonical isoform): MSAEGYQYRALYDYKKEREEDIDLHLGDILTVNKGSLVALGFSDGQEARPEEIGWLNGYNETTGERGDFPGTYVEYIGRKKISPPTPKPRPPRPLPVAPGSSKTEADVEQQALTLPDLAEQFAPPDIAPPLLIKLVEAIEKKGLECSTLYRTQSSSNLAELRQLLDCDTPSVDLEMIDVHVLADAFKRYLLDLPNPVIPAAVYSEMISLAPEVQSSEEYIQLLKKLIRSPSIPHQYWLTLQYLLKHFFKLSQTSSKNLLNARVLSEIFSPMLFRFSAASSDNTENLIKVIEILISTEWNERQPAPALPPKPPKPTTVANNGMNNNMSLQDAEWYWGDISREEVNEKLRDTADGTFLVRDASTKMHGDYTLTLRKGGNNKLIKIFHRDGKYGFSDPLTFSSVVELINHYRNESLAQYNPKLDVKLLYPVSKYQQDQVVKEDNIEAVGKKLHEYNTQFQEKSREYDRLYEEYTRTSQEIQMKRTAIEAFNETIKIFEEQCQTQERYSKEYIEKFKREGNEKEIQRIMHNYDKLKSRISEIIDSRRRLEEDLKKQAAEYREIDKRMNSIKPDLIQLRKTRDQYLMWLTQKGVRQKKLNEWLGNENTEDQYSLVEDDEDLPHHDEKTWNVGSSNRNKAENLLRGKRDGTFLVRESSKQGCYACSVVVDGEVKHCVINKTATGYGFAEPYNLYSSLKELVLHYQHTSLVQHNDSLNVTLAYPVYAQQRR
Text: (§2) Accumulating evidence highlighted that PI3K signaling pathway upregulation is highly implicated in breast cancer development and disease progression as well as resistance to hormones and cytotoxic therapy. Therefore, it is essential to elucidate the effect of the novel compound, VIIb, on the PI3K/Akt signaling pathway by using in vitro PI3K class 1A enzyme inhibition assay conducted on PI3K-α and PI3K-γ isoforms as well as an Akt-1 enzyme inhibition assay. […] Furthermore, targeting the PI3K-γ isoform in breast cancer could contribute to enhancing the anti-tumor immunity.
(§3) The in vitro inhibition of PI3K and Akt kinase activities by VIIb was assessed using a PI3Kα (p110α/p85) assay kit (Catalog #79781; BPS Bioscience, Inc, San Diego, CA, USA), PI3Kγ (p110γ/PIK3R5) assay kit (Catalog #79803; BPS Bioscience, Inc, San Diego, CA, USA), and Akt Kinase Activity assay kit (ab139436; Abcam, Cambridge, UK) following the manufacturer’s instructions as described previously. The results were expressed as IC50 values using dose–response curves and linear regression equations.

[4] = target: T2, Akt-1 (Homo sapiens, UniProt P31749); assay: Akt Kinase Activity assay kit; format: biochemical; details: means ± sd, n = 3; read-out: IC50 (µM) Akt-1 Isoform
T2 construct: purchased Abcam ab139436
T2 sequence (P31749 whole entry, species assumed, canonical isoform): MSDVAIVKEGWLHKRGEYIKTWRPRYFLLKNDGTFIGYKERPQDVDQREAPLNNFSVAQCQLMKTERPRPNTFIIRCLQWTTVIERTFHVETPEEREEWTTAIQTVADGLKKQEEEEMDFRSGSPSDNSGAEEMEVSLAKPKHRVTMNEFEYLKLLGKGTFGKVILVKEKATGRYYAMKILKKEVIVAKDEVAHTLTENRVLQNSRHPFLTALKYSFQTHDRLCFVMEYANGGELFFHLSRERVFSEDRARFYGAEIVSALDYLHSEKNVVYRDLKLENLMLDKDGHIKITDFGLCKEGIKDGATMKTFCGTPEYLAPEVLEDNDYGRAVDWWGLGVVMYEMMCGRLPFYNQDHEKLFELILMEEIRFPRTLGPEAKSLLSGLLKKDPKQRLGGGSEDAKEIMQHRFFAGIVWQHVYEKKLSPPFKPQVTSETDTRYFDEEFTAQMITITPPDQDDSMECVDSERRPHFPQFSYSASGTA
Text: as §2
as §3, with “equations. LY294002 compound was taken as the reference compound. The values were means ± sd; n = 3.” for “equations.”

[5] = tested on: MCF 10 non-tumorigenic epithelial cell line; assay: MTT assay in non-cancerous epithelial cells (MCF 10); format: cell-based
Method: as §1
Firstly, cells were kept in a humidified atmosphere (37 °C, 24 h), and then incubated with serial concentrations of the tested compounds. After 48 h, the medium was aspirated, and then cells were incubated with 5% MTT solution (M-5655; Sigma Aldrich, St. Louis, MO USA) (200 µL/well, 2 h), allowing the dye to metabolize into the colored insoluble formazan complex that was then dissolved in the appropriate solubilization solution (M-8910) (200 µL/well), for 30 min with gentle mixing at room temperature. The UV absorbance was measured using a microplate reader (570 nm), and cell viability was determined with respect to untreated control cells.

- IC50 [3]: 3.7 ± 0.19 µM
- IC50 [4]: 2.93 ± 0.15 µM
Compound: C/C(=N/N=C1/SCC(=O)N1C(=O)c1ccccc1)c1c(O)ccc2c(C)cc(=O)oc12 [VIIb]
- DNA Content % Pre G1 ([1]; control 1.55): 35.25%
- DNA Content % G2/M ([1]; control 9.71): 5.59%
- DNA Content % S ([1]; control 36.58): 46.02%
- DNA Content % G0/G1 ([1]; control 53.71): 48.39%
- IC50 [2]: 1.03 ± 0.05 µM
- IC50 ([5]; Homo sapiens, MCF10, MTT assay, non-cancerous epithelial cells, means ± sd, n = 3): 9.52 ± 0.6 µM
- Selectivity Index MCF-10/MCF-7 ([5]; ratio of IC50 MCF-10 to IC50 MCF-7): 9.24
